Experiments:
GP88 = test: regulation of GP88 expression in 1246, 1246-3A and PC cells, Northern and Western blot; assay type: cell-based, mouse; details: 1246 cells
Method: Fifteen or twenty micrograms of total RNA per sample were subjected to electrophoresis on a denaturing 1.2% agarose gel containing 0.22 M formaldehyde in 1×MOPS (10×MOPS: 0.2 M MOPS, 50 mM NaOAc 10 mM EDTA). RNA was blotted on nitrocellulose membrane (MSI Inc., Westboro, Mass.) by overnight capillary transfer in 10×SSC (20×SSC=3 M NaCl, 0.3 M Na Citrate pH 7.0). […] Results were quantitated by densitometric scanning. Ribosomal protein L32 mRNA was detected as internal standard for normalizing RNA loading.
Amounts of cell lysate and culture medium to be analyzed were normalized by cell number of 18×10^5 and 3×10^5 respectively. […] Proteins were electro transferred to immobilon membranes and GP88 detected using anti K19T antibody conjugated to horseradish peroxidase and detected by enhanced chemiluminescence (ECL).
GP88 expression was examined in 1246 cells in different culture conditions such as defined medium and serum containing medium. It was shown that the level of expression of GP88 mRNA (measured by Northern blot analysis) and protein (measured by Western blot analysis) in 1246 and in 1246-3A cells is inhibited when the cells are treated with 2% fetal bovine serum indicating the presence of circulating inhibitors of GP88 expression in fetal bovine serum (FIG. 1C). […]

GP88 mRNA = test: regulation of GP88 mRNA expression in MDA MB-453 cells; assay type: cell-based, human

Substance: EGF: epidermal growth factor
- GP88 mRNA expression (GP88): stimulated

Substance: insulin: hormone
- GP88 mRNA expression (GP88 mRNA): stimulated
